# How the values were obtained:
# SMARCA2-HiBiT = target: T1, SMARCA2-HiBiT (Homo sapiens, UniProt P51531); assay: SMARCA2 HiBiT degradation assay in HeLa cells; format: cell-based; conditions: 18 hours incubation; for DC50: read-out: HeLa_HiBit-SM2 DC50; for Dmax: HeLa, read-out: HeLa-HiBit-SM2 Dmax (%)
# T1 construct: SMARCA2-HiBiT knock-in Hela monoclonal cell (CS302366); host or cells: HeLa monoclonal knock-in line (CRISPR HiBiT knock-in at the endogenous locus, heterozygous)
# In short: (§1)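 HeLa monoclonal lines with heterozygous HiBiT knock-in were seeded at 2500 cells/well in EMEM with 10% FBS and treated with compound for 18 h at 37 °C. Remaining tagged protein was measured by Nano-Glo HiBiT lytic luminescence after 30–60 min at RT, and values came from curve fitting.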
# SMARCA4-HiBiT = target: T2, SMARCA4-HiBiT (Homo sapiens, UniProt P51532); assay: SMARCA4 HiBiT degradation assay in HeLa cells; format: cell-based; conditions: 18 hours incubation; for DC50: read-out: HeLa-HiBit-SM4 DC50; for Dmax: HeLa, read-out: HeLa-HiBit-SM4 Dmax (%)
# T2 construct: SMARCA4-HiBiT knock-in Hela monoclonal cell (CS3023226); host or cells: HeLa monoclonal knock-in line (CRISPR HiBiT knock-in at the endogenous locus, heterozygous)
# In short: as §1
# T2 sequence (P51532 whole entry): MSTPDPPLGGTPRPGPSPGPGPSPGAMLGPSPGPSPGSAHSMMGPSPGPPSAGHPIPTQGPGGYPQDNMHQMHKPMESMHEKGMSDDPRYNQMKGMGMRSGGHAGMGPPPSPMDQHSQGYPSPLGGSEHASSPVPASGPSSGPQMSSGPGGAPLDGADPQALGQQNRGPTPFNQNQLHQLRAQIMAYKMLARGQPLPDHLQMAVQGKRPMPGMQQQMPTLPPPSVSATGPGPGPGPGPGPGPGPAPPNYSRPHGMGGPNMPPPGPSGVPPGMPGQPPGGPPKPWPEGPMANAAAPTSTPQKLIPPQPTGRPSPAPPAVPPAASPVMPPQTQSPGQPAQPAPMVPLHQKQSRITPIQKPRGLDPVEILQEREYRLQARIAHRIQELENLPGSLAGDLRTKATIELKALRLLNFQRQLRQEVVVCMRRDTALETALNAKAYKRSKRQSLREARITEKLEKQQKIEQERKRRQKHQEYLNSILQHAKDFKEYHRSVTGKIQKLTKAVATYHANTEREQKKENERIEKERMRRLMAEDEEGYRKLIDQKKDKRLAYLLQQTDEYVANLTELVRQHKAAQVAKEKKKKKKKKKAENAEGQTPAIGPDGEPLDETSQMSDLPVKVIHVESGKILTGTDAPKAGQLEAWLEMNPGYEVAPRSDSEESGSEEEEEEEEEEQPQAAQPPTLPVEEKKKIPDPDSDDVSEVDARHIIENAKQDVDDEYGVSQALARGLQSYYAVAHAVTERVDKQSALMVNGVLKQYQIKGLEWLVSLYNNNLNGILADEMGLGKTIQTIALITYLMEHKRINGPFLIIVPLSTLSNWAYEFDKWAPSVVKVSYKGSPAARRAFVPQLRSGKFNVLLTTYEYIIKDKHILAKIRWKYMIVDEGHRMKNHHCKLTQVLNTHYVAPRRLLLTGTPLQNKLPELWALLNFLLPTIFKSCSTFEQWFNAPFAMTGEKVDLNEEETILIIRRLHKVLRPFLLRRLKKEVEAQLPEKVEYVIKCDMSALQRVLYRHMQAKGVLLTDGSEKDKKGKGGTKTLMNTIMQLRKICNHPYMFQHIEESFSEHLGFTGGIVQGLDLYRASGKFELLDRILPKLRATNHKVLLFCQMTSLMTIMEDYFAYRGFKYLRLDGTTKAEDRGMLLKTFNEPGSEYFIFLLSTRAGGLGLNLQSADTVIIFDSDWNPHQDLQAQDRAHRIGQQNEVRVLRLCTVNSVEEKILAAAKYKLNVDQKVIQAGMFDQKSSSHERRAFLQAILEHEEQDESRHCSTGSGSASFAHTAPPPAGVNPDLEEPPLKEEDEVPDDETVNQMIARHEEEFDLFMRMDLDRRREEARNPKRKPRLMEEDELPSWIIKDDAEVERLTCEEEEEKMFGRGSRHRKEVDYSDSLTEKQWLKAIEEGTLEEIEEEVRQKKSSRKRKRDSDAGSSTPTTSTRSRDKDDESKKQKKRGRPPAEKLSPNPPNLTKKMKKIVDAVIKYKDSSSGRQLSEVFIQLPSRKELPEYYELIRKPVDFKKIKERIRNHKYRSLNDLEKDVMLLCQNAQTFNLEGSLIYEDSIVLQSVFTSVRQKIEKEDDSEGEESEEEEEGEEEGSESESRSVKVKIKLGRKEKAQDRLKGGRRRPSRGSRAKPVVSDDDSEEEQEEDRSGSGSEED
# T1 sequence (P51531 whole entry): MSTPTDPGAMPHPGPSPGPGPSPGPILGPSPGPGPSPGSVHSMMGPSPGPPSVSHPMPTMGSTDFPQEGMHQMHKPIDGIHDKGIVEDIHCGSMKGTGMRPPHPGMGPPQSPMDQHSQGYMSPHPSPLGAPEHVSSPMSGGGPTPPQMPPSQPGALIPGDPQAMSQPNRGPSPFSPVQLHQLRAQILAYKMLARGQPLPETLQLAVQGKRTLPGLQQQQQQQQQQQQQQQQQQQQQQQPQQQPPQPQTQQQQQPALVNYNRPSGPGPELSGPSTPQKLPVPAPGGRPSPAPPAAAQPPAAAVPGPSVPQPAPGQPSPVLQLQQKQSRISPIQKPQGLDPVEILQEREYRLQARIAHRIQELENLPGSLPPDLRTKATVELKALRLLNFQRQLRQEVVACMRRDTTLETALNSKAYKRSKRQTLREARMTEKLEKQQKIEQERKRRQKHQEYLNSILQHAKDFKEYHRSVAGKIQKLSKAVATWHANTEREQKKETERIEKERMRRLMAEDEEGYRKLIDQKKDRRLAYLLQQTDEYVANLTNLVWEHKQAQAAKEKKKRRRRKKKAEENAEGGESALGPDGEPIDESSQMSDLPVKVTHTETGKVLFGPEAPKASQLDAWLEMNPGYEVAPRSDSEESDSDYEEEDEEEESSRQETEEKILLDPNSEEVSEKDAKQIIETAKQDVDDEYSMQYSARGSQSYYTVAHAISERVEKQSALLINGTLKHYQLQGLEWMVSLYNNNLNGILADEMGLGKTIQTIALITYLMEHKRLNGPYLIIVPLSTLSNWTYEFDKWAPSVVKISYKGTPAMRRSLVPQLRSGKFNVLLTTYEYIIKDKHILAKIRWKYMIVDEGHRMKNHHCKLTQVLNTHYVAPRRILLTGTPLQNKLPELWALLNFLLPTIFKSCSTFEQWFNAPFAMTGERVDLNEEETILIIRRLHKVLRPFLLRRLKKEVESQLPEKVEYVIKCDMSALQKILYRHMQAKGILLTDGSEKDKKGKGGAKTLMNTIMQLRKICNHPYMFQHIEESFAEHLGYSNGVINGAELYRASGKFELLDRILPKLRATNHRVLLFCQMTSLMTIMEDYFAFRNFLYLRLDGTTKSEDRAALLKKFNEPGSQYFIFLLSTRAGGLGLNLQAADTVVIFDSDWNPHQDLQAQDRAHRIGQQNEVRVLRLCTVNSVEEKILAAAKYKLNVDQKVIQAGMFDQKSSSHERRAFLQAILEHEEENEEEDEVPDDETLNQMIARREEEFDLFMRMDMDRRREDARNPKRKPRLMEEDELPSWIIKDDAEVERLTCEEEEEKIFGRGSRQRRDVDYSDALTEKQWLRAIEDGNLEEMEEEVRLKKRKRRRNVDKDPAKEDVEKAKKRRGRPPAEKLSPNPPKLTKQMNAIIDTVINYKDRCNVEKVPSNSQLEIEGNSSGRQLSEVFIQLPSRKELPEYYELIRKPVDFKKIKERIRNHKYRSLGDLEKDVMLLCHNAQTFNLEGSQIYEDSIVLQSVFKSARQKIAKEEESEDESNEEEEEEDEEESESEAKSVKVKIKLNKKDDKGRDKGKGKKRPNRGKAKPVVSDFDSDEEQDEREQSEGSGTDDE
SMILES,DC50 (SMARCA2-HiBiT) [nM],Dmax (SMARCA2-HiBiT) [%],DC50 (SMARCA4-HiBiT) [nM],Dmax (SMARCA4-HiBiT) [%]
"O=C1CCC(N2Cc3cc(C4CCN(C5CCN(CCN6CCN7c8cc(-c9ccccc9O)nnc8NC[C@H]7C6)CC5)CC4)ccc3C2=O)C(=O)N1 (stereo partly drawn) [Example 212, 3-(5-(1′-(2-((S)-2-(2-hydroxyphenyl)-5,6,6a,7,9,10-hexahydro-8H-pyrazino[1′,2′:4,5]pyrazino[2,3-c]pyridazin-8-yl)ethyl)-[1,4′-bipiperidin]-4-yl)-1-oxoisoindolin-2-yl)piperidine-2,6-dione]",< 10,> 85,< 10,> 85
"O=C1CCC(N2Cc3ccc(N4CCC(CN5CCN(C(=O)N6CCN7c8cc(-c9ccccc9O)nnc8NC[C@H]7C6)CC5C(F)(F)F)CC4)cc3C2=O)C(=O)N1 (stereo partly drawn) [Example 102, 3-(6-(4-((4-((S)-2-(2-hydroxyphenyl)-6,6a,7,8,9,10-hexahydro-5H-pyrazino[1′,2′:4,5]pyrazino[2,3-c]pyridazine-8-carbonyl)-2-(trifluoromethyl)piperazin-1-yl)methyl)piperidin-1-yl)-1-oxoisoindolin-2-yl)piperidine-2,6-dione]",< 10,> 85,< 10,75 to 85
"O=C1CCC(N2Cc3cc(N4CC(CN5CCC(CN6CCN7c8cc(-c9ccccc9O)nnc8NC[C@H]7C6)CC5)C4)ccc3C2=O)C(=O)N1 (stereo partly drawn) [Example 230, 3-(5-(3-((4-(((S)-2-(2-hydroxyphenyl)-5,6,6a,7,9,10-hexahydro-8H-pyrazino[1′,2′:4,5]pyrazino[2,3-c]pyridazin-8-yl)methyl)piperidin-1-yl)methyl)azetidin-1-yl)-1-oxoisoindolin-2-yl)piperidine-2,6-dione]",< 10,> 85,< 10,> 85
"O=C1CCC(N2Cc3ccc(C4CCN(CCN5CCC(N6CCN7c8cc(-c9ccccc9O)nnc8NC[C@H]7C6)CC5)CC4)cc3C2=O)C(=O)N1 (stereo partly drawn) [Example 118, 3-(6-(1-(2-(4-((S)-2-(2-hydroxyphenyl)-5,6,6a,7,9,10-hexahydro-8H-pyrazino[1′,2′:4,5]pyrazino[2,3-c]pyridazin-8-yl)piperidin-1-yl)ethyl)piperidin-4-yl)-1-oxoisoindolin-2-yl)piperidine-2,6-dione]",< 10,> 85,10 to 100,> 85
"O=C1CCC(N2Cc3cc(N4CCN(CC5CCN(CCN6CCN7c8cc(-c9ccccc9O)nnc8NC[C@H]7C6)CC5)CC4)ccc3C2=O)C(=O)N1 (stereo partly drawn) [Example 217, 3-(5-(4-((1-(2-((S)-2-(2-hydroxyphenyl)-5,6,6a,7,9,10-hexahydro-8H-pyrazino [1′,2′:4,5]pyrazino[2,3-c]pyridazin-8-yl)ethyl)piperidin-4-yl)methyl)piperazin-1-yl)-1-oxoisoindolin-2-yl)piperidine-2,6-dione]",< 10,> 85,< 10,> 85
"O=C1CCC(N2Cc3ccc(N4CCN(CCN5CCC(CN6CCN7c8cc(-c9ccccc9O)nnc8NC[C@H]7C6)CC5)CC4)cc3C2=O)C(=O)N1 (stereo partly drawn) [Example 119, 3-(6-(4-(2-(4-(((S)-2-(2-hydroxyphenyl)-5,6,6a,7,9,10-hexahydro-8H-pyrazino[1′,2′:4,5]pyrazino[2,3-c]pyridazin-8-yl)methyl)piperidin-1-yl)ethyl)piperazin-1-yl)-1-oxoisoindolin-2-yl)piperidine-2,6-dione]",< 10,> 85,< 10,> 85
"O=C1CCC(N2Cc3cc(CN4CCC(CCc5cnc(N6CCN7c8cc(-c9ccccc9O)nnc8NC[C@H]7C6)nc5)CC4)ccc3C2=O)C(=O)N1 (stereo partly drawn) [Example 64, 3-(5-((4-(2-(2-((S)-2-(2-hydroxyphenyl)-5,6,6a,7,9,10-hexahydro-8H-pyrazino[1′,2′:4,5]pyrazino[2,3-c]pyridazin-8-yl)pyrimidin-5-yl)ethyl)piperidin-1-yl)methyl)-1-oxoisoindolin-2-yl)piperidine-2,6-dione]",< 10,> 85,< 10,75 to 85

# Results, then the molecule that gave them:
DC50 (SMARCA2-HiBiT) [nM],Dmax (SMARCA2-HiBiT) [%],DC50 (SMARCA4-HiBiT) [nM],Dmax (SMARCA4-HiBiT) [%],SMILES
< 10,> 85,< 10,> 85,"CC1(CN2CCN3c4cc(-c5ccccc5O)nnc4NC[C@H]3C2)CCN(CC2CCN(c3ccc4c(c3)C(=O)N(C3CCC(=O)NC3=O)C4=O)CC2)CC1 (stereo partly drawn) [Example 37, 2-(2,6-dioxopiperidin-3-yl)-5-(4-((4-(((S)-2-(2-hydroxyphenyl)-5,6,6a,7,9,10-hexahydro-8H-pyrazino[1′,2′:4,5]pyrazino[2,3-c]pyridazin-8-yl)methyl)-4-methylpiperidin-1-yl)methyl)piperidin-1-yl)isoindoline-1,3-dione]"
< 10,75 to 85,< 10,75 to 85,"O=C1CCC(N2C(=O)c3ccc(Nc4ccc(N5CCC(N6CCN7c8cc(-c9ccccc9O)nnc8NC[C@H]7C6)CC5)cc4)cc3C2=O)C(=O)N1 (stereo partly drawn) [Example 240, 2-(2,6-dioxopiperidin-3-yl)-5-((4-(4-((S)-2-(2-hydroxyphenyl)-5,6,6a,7,9,10-hexahydro-8H-pyrazino[1′,2′:4,5]pyrazino[2,3-c]pyridazin-8-yl)piperidin-1-yl)phenyl)amino) isoindoline-1,3-dione]"
< 10,75 to 85,< 10,50 to 75,"O=C1CCC(N2C(=O)c3ccc(N4CCN(C5CCN(CCN6CCN7c8cc(-c9ccccc9O)nnc8NC[C@H]7C6)C5)CC4)cc3C2=O)C(=O)N1 (stereo partly drawn) [Example 221, 2-(2,6-dioxopiperidin-3-yl)-5-(4-(1-(2-((S)-2-(2-hydroxyphenyl)-5,6,6a,7,9,10-hexahydro-8H-pyrazino[1′,2′:4,5]pyrazino[2,3-c]pyridazin-8-yl)ethyl)pyrrolidin-3-yl)piperazin-1-yl) isoindoline-1,3-dione]"
< 10,75 to 85,< 10,50 to 75,"O=C1CCC(N2C(=O)c3ccc(N4CC5CCC(C4)C5CN4C[C@@H]5[C@H](C4)[C@H]5CN4CCN5c6cc(-c7ccccc7O)nnc6NC[C@H]5C4)cc3C2=O)C(=O)N1 (stereo partly drawn) [Example 53, 2-(2,6-dioxopiperidin-3-yl)-5-(8-(((1R,5S,6r)-6-(((S)-2-(2-hydroxyphenyl)-5,6,6a,7,9,10-hexahydro-8H-pyrazino [1′,2′:4,5]pyrazino[2,3-c]pyridazin-8-yl)methyl)-3-azabicyclo [3.1,0]hexan-3-yl)methyl)-3-azabicyclo[3.2.1]octan-3-yl)isoindoline-1,3-dione]"
< 10,> 85,< 10,75 to 85,"CC1CC(N2CCN3c4cc(-c5ccccc5O)nnc4NC[C@H]3C2)CCN1CCCC1CCN(c2cccc3c2C(=O)N(C2CCC(=O)NC2=O)C3=O)CC1 (stereo partly drawn) [Example 126, 2-(2,6-dioxopiperidin-3-yl)-4-(4-(3-(4-((S)-2-(2-hydroxyphenyl)-5,6,6a,7,9,10-hexahydro-8H-pyrazino[1′,2′:4,5]pyrazino[2,3-c]pyridazin-8-yl)-2-methylpiperidin-1-yl)propyl)piperidin-1-yl)isoindoline-1,3-dione]"
< 10,> 85,< 10,> 85,"CN(C1CCN(CC2CCN(c3ccc4c(c3)C(=O)N(C3CCC(=O)NC3=O)C4=O)CC2)CC1)C1C[C@@H]2CNc3nnc(-c4ccccc4O)cc3N2C1 (stereo partly drawn) [Example 29, 2-(2,6-dioxopiperidin-3-yl)-5-(4-((4-(((6aR)-2-(2-hydroxyphenyl)-5,6,6a,7,8,9-hexahydropyrrolo[1′,2′:4,5]pyrazino[2,3-c]pyridazin-8-yl)(methyl)amino)piperidin-1-yl)methyl)piperidin-1-yl) isoindoline-1,3-dione]"
< 10,> 85,< 10,> 85,"CC(C1CCN(c2ccc3c(c2)C(=O)N(C2CCC(=O)NC2=O)C3=O)CC1)N1CCC(CCCN2CCN3c4cc(-c5ccccc5O)nnc4NC[C@H]3C2)CC1 (stereo partly drawn) [Example 248, 2-(2,6-dioxopiperidin-3-yl)-5-(4-(1-(4-(3-((S)-2-(2-hydroxyphenyl)-5,6,6a,7,9,10-hexahydro-8H-pyrazino[1′,2′:4,5]pyrazino[2,3-c]pyridazin-8-yl)propyl)piperidin-1-yl)ethyl)piperidin-1-yl)isoindoline-1,3-dione]"
< 10,50 to 75,10 to 100,≤ 50,"O=C1CCC(N2C(=O)c3ccc(NCCN4CCN(C(=O)N5CCN6c7cc(-c8ccccc8O)nnc7NC[C@H]6C5)CC4)cc3C2=O)C(=O)N1 (stereo partly drawn) [Example 219, 2-(2,6-dioxopiperidin-3-yl)-5-((2-(4-((S)-2-(2-hydroxyphenyl)-6,6a,7,8,9,10-hexahydro-511-pyrazino[1′,2′:4,5]pyrazino[2,3-c]pyridazine-8-carbonyl)piperazin-1-yl)ethyl)amino) isoindoline-1,3-dione]"
< 10,> 85,< 10,> 85,"O=C1CCC(N2C(=O)c3ccc(N4CCC5(CC4)CC(N4C[C@@H]6[C@@H](CN7CCN8c9cc(-c%10ccccc%10O)nnc9NC[C@H]8C7)[C@@H]6C4)C5)cc3C2=O)C(=O)N1 (stereo partly drawn) [Example 93, 2-(2,6-dioxopiperidin-3-yl)-5-(2-((1R,5S,6s)-6-(((S)-2-(2-hydroxyphenyl)-5,6,6a,7,9,10-hexahydro-8H-pyrazino[1′,2′:4,5]pyrazino[2,3-c]pyridazin-8-yl)methyl)-3-azabicyclo[3.1.0]hexan-3-yl)-7-azaspiro[3.5]nonan-7-yl)isoindoline-1,3-dione]"

# From patent publication US12448389B2, “BRM targeting compounds and associated methods of use” (Prelude Therapeutics Incorporated, priority 2020, dated 2025)
